In data set [1] the test system is Cyperus serotinus. Put plainly: Herbicidal activity against Cyperus serotinus exposed to compound at 1.5 to 2 leaf stage assessed as herbicidal rate scores at 0.5 kg ai/ha measured 2 weeks post compound treatment by pot test. The format is functional.
For data set [2], the system named is Schoenoplectiella juncoides. The data set can be described thus: Herbicidal activity against Schoenoplectiella juncoides exposed to compound at 1.5 to two-leaf stage assessed as herbicidal rate scores at 0.5 kg ai/ha measured 2 weeks post compound treatment by pot test. It counts as functional.
Data set [3] relates to Oryza sativa. The data set can be described thus: Toxicity in direct seeded Oryza sativa (rice) plants assessed as phytotoxicity scores at 0.5 kg ai/ha measured 2 weeks post compound treatment. It counts as organism-based. To be noted: in vivo, 336 h.
For data set [4], the system named is Oryza sativa. The data set can be described thus: Toxicity in two-leaf stage Oryza sativa (rice) plants exposed to compound 3 days post transplantation assessed as phytotoxicity scores at 0.5 kg ai/ha measured 2 weeks post compound treatment. It counts as organism-based. The settings on record: in vivo, 336 h.
Data set [5] deals with Rotala indica. Put plainly: Herbicidal activity against Rotala indica exposed to compound at 1.5 to 2 leaf stage assessed as herbicidal rate scores at 0.5 kg ai/ha measured 2 weeks post compound treatment by pot test. The format is functional.
The subject of data set [6] is Echinochloa oryzicola. The data set can be described thus: Herbicidal activity against germinated Echinochloa oryzicola assessed as inhibition of above-ground shoot length growth after 7 days post compound treatment by petri dish test. The format is functional. To be noted: for EC50: 168 h, read-out: ED50 (the source's name).
The test system of data set [7] is Echinochloa oryzicola. The data set can be described thus: Herbicidal activity against Echinochloa oryzicola exposed to compound at 1.5 to two-leaf stage assessed as herbicidal rate scores at 0.5 kg ai/ha measured 2 weeks post compound treatment by pot test. The format is functional.

The structures appear in SMILES notation. In brackets after ≈: the same amount, converted by molar mass. Activity calls are given as the source filed them. The rule behind the calls is not given here.

For the compound `Cc1cc(S(=O)(=O)N(C)CC2(c3cccc(Cl)n3)CO2)ccc1Cl` (racemic), the Activity in data set [1] was found to be 9; in data set [2], 4; in data set [3] it was 10; in data set [4], 0; in data set [5], 9; in data set [7], 10. In addition, the EC50 in data set [6] was 0.07 µg/mL (≈ 0.181 µM).
Take `CN(C[C@@]1(c2cccc(Cl)n2)CO1)S(=O)(=O)c1ccc2c(c1)CCCC2`: the Activity in data set [1], in data set [2], in data set [3], in data set [4], in data set [5] and in data set [7] was 0 each time. Besides, in data set [6], the ED50 entry was “inactive”.
With `CN(C[C@]1(c2cccc(Cl)n2)CO1)S(=O)(=O)c1ccc2c(c1)CCCC2`, the Activity turned out to be 9 in data set [1]; 3 in data set [2]; 1 in data set [3]; 0 in data set [4]; 10 in data set [5]; 9 in data set [7]. Further, in data set [6], the EC50 came to 0.05 µg/mL (≈ 0.127 µM).
As for `CN(CC1(c2cccc(Cl)n2)CO1)S(=O)(=O)c1ccc2c(c1)CCCC2` (racemic), the Activity in data set [1] is given as 8; in data set [2], 2; in data set [3] it was 0; in data set [4], 0; in data set [5], 10; in data set [7], 8. The EC50 in data set [6] came out at 0.11 µg/mL (≈ 0.28 µM).
On to `Cc1cc(S(=O)(=O)N(C)C[C@@]2(c3cccc(Cl)n3)CO2)ccc1Cl`, for which the Activity in data set [1] amounted to 2; in data set [2], 0; in data set [3], 0; in data set [4] it was 0; in data set [5], 2; in data set [7], 1. In addition, the ED50 entry in data set [6] is “inactive”.
In the case of `Cc1cc(S(=O)(=O)N(C)C[C@]2(c3cccc(Cl)n3)CO2)ccc1Cl`, the Activity came out at 10 in data set [1]; 7 in data set [2]; 10 in data set [3]; 1 in data set [4]; 10 in data set [5]; 10 in data set [7]. Besides, the EC50 in data set [6] stood at 0.035 µg/mL (≈ 0.0904 µM).

(Values after ChEMBL document CHEMBL3044551, “Synthesis of optically active N-(2-pyridyloxiran-2-ylmethyl) benzenesulfonamide derivatives and their herbicidal activity” (Biosci Biotechnol Biochem, 2001).)
